Measured values published in patent publication US12319664B2, “Herbicidally active 3-phenylisoxazoline-5-carboxamides of cyclopentenylcarboxylic acid derivatives” (Bayer Aktiengesellschaft, priority 2018, dated 2025).

Experiments:
[1] = system: ABUTH; assay: Post-emergence herbicidal action against ABUTH; format: in vivo, Abutilon theophrasti; details: application rate 80 g/ha, rated visually about 3 weeks after treatment
Description: (§1) [table] 2. Post-emergence herbicidal action against harmful plants and crop plant compatibility Seeds of monocotyledonous and dicotyledonous weeds and crop plants are placed in sandy loam in plastic or wood-fibre pots, covered with soil and cultivated in a greenhouse under controlled growth conditions. 2 to 3 weeks after sowing, the test plants are treated at the one-leaf stage. The compounds of the invention, formulated in the form of wettable powders (WP) or as emulsion concentrates (EC), are then sprayed onto the green parts of the plants as aqueous suspension or emulsion with addition of 0.5% additive at a water application rate of 600 l/ha (converted). After the test plants have been kept in the greenhouse under optimum growth conditions for about 3 weeks, the activity of the preparations is rated visually in comparison to untreated controls. For example, 100% activity=the plants have died, 0% activity=like control plants.

[2] = system: VERPE; assay: Post-emergence herbicidal action against VERPE; format: in vivo, Veronica persica; details: application rate 80 g/ha
Outline: (§2)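 Aqueous suspensions or emulsions of WP/EC formulations containing 0.5% additive are sprayed at 600 l/ha onto plants at the one-leaf stage. After about 3 weeks in the greenhouse, activity is rated by eye versus untreated controls.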

[3] = system: HORMU; assay: Post-emergence herbicidal action against HORMU; format: in vivo, Hordeum murinum; details: application rate 80 g/ha
Outline: as §2

[4] = system: STEME; assay: Post-emergence herbicidal action against STEME; format: in vivo, Stellaria media; details: application rate 80 g/ha, rated visually about 3 weeks after treatment
Outline: as §2

[5] = system: AMARE; assay: Post-emergence herbicidal action against AMARE; format: in vivo, Amaranthus retroflexus; details: application rate 80 g/ha, rated visually about 3 weeks after treatment
Outline: as §2

[6] = system: AVEFA; assay: Post-emergence herbicidal action against AVEFA; format: in vivo, Avena fatua; details: application rate 80 g/ha, rated visually after about 3 weeks
Outline: as §2

[7] = system: PHBPU; assay: Post-emergence herbicidal action against PHBPU; format: in vivo, Pharbitis purpurea; details: application rate 80 g/ha, rated visually about 3 weeks after treatment
Description: as §1

[8] = system: LOLRI; assay: Post-emergence herbicidal action against LOLRI; format: in vivo, Lolium rigidum; details: application rate 80 g/ha, rated visually after about 3 weeks
Outline: as §2

[9] = system: SETVI; assay: Post-emergence herbicidal action against SETVI; format: in vivo, Setaria viridis; details: application rate 80 g/ha, rated visually after about 3 weeks
Outline: as §2

[10] = system: ECHCG; assay: Post-emergence herbicidal action against ECHCG; format: in vivo, Echinochloa crus-galli; details: application rate 80 g/ha, rated visually after about 3 weeks
Outline: as §2

[11] = system: ALOMY; assay: Post-emergence herbicidal action against ALOMY; format: in vivo, Alopecurus myosuroides; details: application rate 80 g/ha, rated visually after about 3 weeks
Outline: as §2

[12] = system: VIOTR; assay: Post-emergence herbicidal action against VIOTR; format: in vivo, Viola tricolor; details: application rate 80 g/ha, rated visually about 3 weeks after treatment
Description: as §1

[13] = system: POLCO; assay: Post-emergence herbicidal action against POLCO; format: in vivo, Polygonum convolvulus; details: application rate 80 g/ha, rated visually about 3 weeks after treatment
Outline: as §2

Compound	Herbicidal action against [%] ABUTH [1] [%]	Herbicidal action against [%] VERPE [2] [%]	Herbicidal action against [%] HORMU [3] [%]	Herbicidal action against [%] STEME [4] [%]	Herbicidal action against [%] AMARE [5] [%]	Herbicidal action against [%] AVEFA [6] [%]	Herbicidal action against [%] PHBPU [7] [%]	Herbicidal action against [%] LOLRI [8] [%]	Herbicidal action against [%] SETVI [9] [%]	Herbicidal action against [%] ECHCG [10] [%]	Herbicidal action against [%] ALOMY [11] [%]	Herbicidal action against [%] VIOTR [12] [%]	Herbicidal action against [%] POLCO [13] [%]
COc1cc(OC)cc(C2=NOC(C(=O)NC3C=CC(C(=O)OCC(F)(F)F)C3)(C(F)(F)F)C2)c1 (mixture of isomers) [Example I-052]	90	80	100	80	90	100	80	100	90	80	100	80	
C=CC1(C(=O)NC2C=CC(C(=O)OC(C)(C)C)C2)CC(c2cc(F)cc(F)c2)=NO1 (mixture of isomers) [Example I-060]			90		80	90	80			90	90	80	
CCOC(=O)C1C=CC(NC(=O)C2(C(F)(F)F)CC(c3cccc(C#N)c3)=NO2)C1 (mixture of isomers) [Example I-072]	80	80	90	80	80	100		90	80	90	90	80	90
COC(=O)C1C=CC(NC(=O)C2(C)CC(c3cccc(C#N)c3)=NO2)C1 (mixture of isomers) [Example I-080]		90	90	90	90	100	90	90	80	90	90	80	90
N#Cc1cc(F)cc(C2=NOC(C(=O)NC3C=CC(C(=O)OCCCl)C3)(C(F)(F)F)C2)c1 (mixture of isomers) [Example I-089]	90	90	100	90	90	100		100	80	90	100	90	90
CC(C)(C#N)NC(=O)C1C=CC(NC(=O)C2(C)CC(c3cc(F)cc(F)c3)=NO2)C1 (mixture of isomers) [II-10]		80		90	80	90	90	90		90	90	90	90
O=C(C1C=CC(NC(=O)C2(C(F)(F)F)CC(c3cc(F)cc(F)c3)=NO2)C1)N1CCCCO1 (mixture of isomers) [II-31]	90	90	80	90	80	100		90	80	90	90	90	90
